# Laboratory results as given in US8889423B2, “Method for analysis of compound-binding ability of protein” (Eisai R & D Management Co., Ltd., priority 2005, dated 2014).
# What was measured:
# [1] = biological target: T1, AHCY (S-adenosylhomocysteine hydrolase) (Homo sapiens, UniProt P23526); assay: Affinity chromatography on immobilized compound with urea step elution, LC/MS peak intensity ratio; format: binding; conditions: for peak intensity ratio (peak area of the labeled protein/peak area of the non-labeled protein): HCT116 extract
# T1 construct: Insoluble fractions were removed by centrifugation to prepare soluble fractions; endogenous in cells; host or cells: HCT116
# T1 sequence (P23526 2-432 limits assumed): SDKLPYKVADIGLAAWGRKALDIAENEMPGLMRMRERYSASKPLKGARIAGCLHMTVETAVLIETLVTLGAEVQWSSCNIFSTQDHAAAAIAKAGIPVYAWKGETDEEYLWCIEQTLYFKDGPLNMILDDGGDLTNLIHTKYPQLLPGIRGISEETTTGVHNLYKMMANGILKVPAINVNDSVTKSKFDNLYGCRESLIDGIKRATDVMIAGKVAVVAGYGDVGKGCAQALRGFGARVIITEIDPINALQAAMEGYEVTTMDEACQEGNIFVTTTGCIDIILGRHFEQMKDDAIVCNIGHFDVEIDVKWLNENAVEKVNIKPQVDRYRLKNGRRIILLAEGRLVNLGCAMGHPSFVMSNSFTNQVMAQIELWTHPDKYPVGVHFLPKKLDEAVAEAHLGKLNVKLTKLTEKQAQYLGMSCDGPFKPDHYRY
# Procedure: (§1) About 10 mg of the compound represented by formula (1):
# (§2) [drawing 1] was dissolved in 4 mL of tetrahydrofuran (THF) and 4 mL of methanol (MeOH), and 4 mL of water was added thereto.
# (§3) 6 mL of the resultant solution was diluted with 18 mL of THF/MeOH/Water=1/1/1 (v/v/v), and was added to 25 mL of Affi-gel 10 (produced by BioRad, Cat No. 153-6099), which had been washed with THF/MeOH/Water=1/1/1 (v/v/v) beforehand.
# (§4) To the resultant substance, 100 μL of triethylamine (produced by Tokyo Chemical Industry Co., Ltd., Cat No. T0424) was added thereto and incubated at room temperature for 2 hours. Then, 500 μL of 2-aminoethanol (produced by Tokyo Chemical Industry Co., Ltd., Cat No. A0297) was added thereto and incubated at room temperature for 2 hours. The resultant gel was fully washed with THF/MeOH/Water=1/1/1 (v/v/v), and was stored at 4° C. after replacement with a methanol solution. The resultant gel was set to be used as an affinity gel. By this reaction, the compound represented by formula (1) was bound at a ratio of about 0.2 mg for 1 mL of gel. A column was filled with about 0.9 ml of the produced affinity gel. Thus, an affinity chromatography column was produced.
# (§5) Human colon glandular cancer cell line HCT116 (ATCC) was cultured. Used as a medium was RPMI-1640 (Sigma, R-7130) containing 10% fetal calf serum (MOREGATE, BATCH 32300102), 100 U/ml of penicillin G; and 100 μg/ml of streptomycin (Invitrogen, 15140-122). As for the RPMI-1640 medium, a powder medium which contains none of L-glutamine, L-lysine, L-methionine, L-leucine, and sodium hydrogen carbonate was selected. Then, components absent in the medium were added. The absent components were added as follows. L-glutamine (produced by Sigma, G-8540), L-lysine (produced by Sigma, L-9037), L-methionine (produced by Sigma, M-5308), and sodium hydrogen carbonate (Wako Pure Chemical Industries, Ltd., 191-01305) were added in 0.3 g/L, 0.04 g/L, 0.015 g/L, and 2 g/L, respectively; and then naturally-occurring L-leucine and L-leucine labeled with a stable isotope ^13C (six) (Cambridge Isotope Laboratories, CLM-2262) were separately added in 0.05 g/L. Each medium thus prepared was used to culture cells in 5% CO2 at 37° C. The cells obtained by such culturing were used in the following tests as cells cultured in a naturally-occurring medium and cells cultured in a stable isotope medium, respectively.
# (§6) Cells cultured in the naturally-occurring medium were provided in an amount corresponding to ten 15-cm diameter plates. Cells cultured in the stable isotope medium were provided in an amount corresponding to ten 15-cm diameter plates. The cells were collected. The cells were solubulized with about 2 ml of M-PER (PIERCE, 78501) per 15-cm diameter plate. Insoluble fractions were removed by centrifugation to prepare soluble fractions. The soluble fractions thus obtained were set to be used as a protein extract liquid metabolically labeled with a stable isotope and a protein extract liquid not metabolically labeled with a stable isotope, respectively. To these protein extract liquids (about 20 ml each), a quadruple amount of PBS was added (final amount: about 100 ml each).
# (§7) Next, about 0.9 ml of affinity gel was put into an open column, and a diluted protein extract liquid metabolically labeled with a stable isotope was added to the open column from above and was naturally dropped. Then, 10 ml of PBS containing 1 M NaCl was flown to this column. Next, 7 ml of PBS containing 1 M urea and 0.01% CHAPS, 7 ml of PBS containing 2 M urea and 0.01% CHAPS, 7 ml of PBS containing 4 M urea and 0.01% CHAPS, and 7 ml of PBS containing 8 M urea and 0.01% CHAPS were sequentially flown, and the eluted fractions were collected (4 fractions in total).
# (§8) In parallel with the above operation, a diluted protein extract liquid not metabolically labeled with a stable isotope was added to 0.9 ml of affinity gel from above and was naturally dropped. Then, 10 ml of PBS containing 1 M NaCl was flown to this column. […]
# [2] = biological target: T2, MTAP (5′-methylthioadenosine phosphorylase) (Homo sapiens, UniProt Q13126); assay: as above; format: binding; conditions: for peak intensity ratio (peak area of the labeled protein/peak area of the non-labeled protein): HCT116 extract
# T2 construct: Insoluble fractions were removed by centrifugation to prepare soluble fractions; endogenous in cells; host or cells: HCT116
# T2 sequence (Q13126 1-283): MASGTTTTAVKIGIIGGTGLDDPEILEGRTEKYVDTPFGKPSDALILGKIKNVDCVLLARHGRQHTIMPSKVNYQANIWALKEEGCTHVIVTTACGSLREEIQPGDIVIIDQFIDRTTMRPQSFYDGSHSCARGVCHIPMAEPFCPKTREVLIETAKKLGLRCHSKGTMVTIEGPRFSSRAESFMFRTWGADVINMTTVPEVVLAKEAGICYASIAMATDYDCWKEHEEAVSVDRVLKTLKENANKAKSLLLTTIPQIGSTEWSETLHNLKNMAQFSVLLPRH
# Procedure: as §1, §2, §3, §4, §5, §6, §7, §8
# [3] = biological target: T3, PCMT1 (protein-L-isoaspartate (D-aspartate) O-methyltransferase) (Homo sapiens, UniProt P22061); assay: as above; format: binding; conditions: for peak intensity ratio (peak area of the labeled protein/peak area of the non-labeled protein): HCT116 extract
# T3 construct: Insoluble fractions were removed by centrifugation to prepare soluble fractions; endogenous in cells; host or cells: HCT116
# Procedure: as §1, §2, §3, §4, §5, §6, §7, §8
# [4] = biological target: T4, SPRY4 (sprouty homolog 4) (Homo sapiens, UniProt Q9C004); assay: as above; format: binding; conditions: for peak intensity ratio (peak area of the labeled protein/peak area of the non-labeled protein): HCT116 extract
# T4 construct: Insoluble fractions were removed by centrifugation to prepare soluble fractions; endogenous in cells; host or cells: HCT116
# T4 sequence (Q9C004 1-299): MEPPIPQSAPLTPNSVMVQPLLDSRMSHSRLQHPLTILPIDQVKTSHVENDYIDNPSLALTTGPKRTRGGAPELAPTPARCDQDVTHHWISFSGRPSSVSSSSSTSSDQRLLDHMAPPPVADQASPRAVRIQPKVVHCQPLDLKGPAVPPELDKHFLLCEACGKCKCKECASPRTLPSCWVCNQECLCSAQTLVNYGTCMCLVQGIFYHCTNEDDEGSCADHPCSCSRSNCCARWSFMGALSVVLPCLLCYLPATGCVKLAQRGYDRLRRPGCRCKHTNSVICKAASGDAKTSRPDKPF
# Procedure: as §1, §2, §3, §4, §5, §6, §7, §8
# [5] = tested on: OS9 (amplified in osteosarcoma isoform 1-4 precursor); assay: as above; format: binding, Human; conditions: for peak intensity ratio (peak area of the labeled protein/peak area of the non-labeled protein): HCT116 extract
# Procedure: as §1, §2, §3, §4, §5, §6
# Next, about 0.9 ml of affinity gel was put into an open column, and a diluted protein extract liquid metabolically labeled with a stable isotope was added to the open column from above and was naturally dropped. Then, 10 ml of PBS containing 1 M NaCl was flown to this column. […]
# [6] = tested on: proteins of HCT116 cell extract (AHCY, PCMT1, OS9, SPRY4); assay: Ranking of binding ability of proteins to the immobilized compound; parameters: species or system Human; conditions: from highest-peak fraction and from ratios in the 8 M urea fraction
# Procedure: as §7
# In parallel with the above operation, a diluted protein extract liquid not metabolically labeled with a stable isotope was added to 0.9 ml of affinity gel from above and was naturally dropped. Then, 10 ml of PBS containing 1 M NaCl was flown to this column. Next, 12 ml of PBS containing 8 M urea and 0.01% CHAPS was flown, and the eluted fractions were collected to be used as an internal standard fraction.
# 3 ml of the internal standard fraction was added to each of the four fractionated samples and mixed together. […]
# Quantitation was to be performed at the peak of the peptides containing leucine. […] Peaks forming a pair were found, and the peak intensity ratio thereof was automatically calculated. In this manner, proteins were identified and the peak intensity ratio was calculated using the constructed software. […]
# T3 sequence (P22061 whole entry): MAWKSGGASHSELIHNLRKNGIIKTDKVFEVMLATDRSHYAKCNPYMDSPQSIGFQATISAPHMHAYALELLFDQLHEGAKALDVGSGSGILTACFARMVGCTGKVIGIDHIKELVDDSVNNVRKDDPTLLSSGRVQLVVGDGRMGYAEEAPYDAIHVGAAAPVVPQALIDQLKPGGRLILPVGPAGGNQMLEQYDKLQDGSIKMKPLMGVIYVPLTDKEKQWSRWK
smiles,measurement,setting,value
NCc1ccc(S(=O)(=O)Nc2cccc3c(Cl)c[nH]c23)cc1 [formula (1)],peak intensity ratio (peak area of the labeled protein/peak area of the non-labeled protein),[1]; 1M Urea fraction,0.63
same,peak intensity ratio (peak area of the labeled protein/peak area of the non-labeled protein),[1]; 2M Urea fraction,0.99
same,peak intensity ratio (peak area of the labeled protein/peak area of the non-labeled protein),[1]; 4M Urea fraction,1.88
same,peak intensity ratio (peak area of the labeled protein/peak area of the non-labeled protein),[1]; 8M Urea fraction,3.27
same,fraction with the highest peak,"[1]; elution with 1, 2, 4, 8 M urea",8 M urea fraction
same,peak intensity ratio (peak area of the labeled protein/peak area of the non-labeled protein),[2]; 1M Urea fraction,0.77
same,peak intensity ratio (peak area of the labeled protein/peak area of the non-labeled protein),[2]; 2M Urea fraction,0.78
same,peak intensity ratio (peak area of the labeled protein/peak area of the non-labeled protein),[2]; 4M Urea fraction,0.71
same,peak intensity ratio (peak area of the labeled protein/peak area of the non-labeled protein),[2]; 8M Urea fraction,0.88
same,peak intensity ratio,[2]; all the four urea fractions,about 0.8
same,peak intensity ratio (peak area of the labeled protein/peak area of the non-labeled protein),[3]; 1M Urea fraction,1.14
same,peak intensity ratio (peak area of the labeled protein/peak area of the non-labeled protein),[3]; 2M Urea fraction,1.57
same,peak intensity ratio (peak area of the labeled protein/peak area of the non-labeled protein),[3]; 4M Urea fraction,2.52
same,peak intensity ratio (peak area of the labeled protein/peak area of the non-labeled protein),[3]; 8M Urea fraction,1.02
same,fraction with the highest peak,"[3]; elution with 1, 2, 4, 8 M urea",4 M urea fraction
same,peak intensity ratio (peak area of the labeled protein/peak area of the non-labeled protein),[4]; 1M Urea fraction,3.70
same,peak intensity ratio (peak area of the labeled protein/peak area of the non-labeled protein),[4]; 2M Urea fraction,1.17
same,peak intensity ratio (peak area of the labeled protein/peak area of the non-labeled protein),[4]; 4M Urea fraction,0.83
same,peak intensity ratio (peak area of the labeled protein/peak area of the non-labeled protein),[4]; 8M Urea fraction,0.67
same,fraction with the highest peak,"[4]; elution with 1, 2, 4, 8 M urea",1 M urea fraction
same,peak intensity ratio (peak area of the labeled protein/peak area of the non-labeled protein),[5]; 1M Urea fraction,1.24
same,peak intensity ratio (peak area of the labeled protein/peak area of the non-labeled protein),[5]; 2M Urea fraction,3.57
same,peak intensity ratio (peak area of the labeled protein/peak area of the non-labeled protein),[5]; 4M Urea fraction,1.62
same,peak intensity ratio (peak area of the labeled protein/peak area of the non-labeled protein),[5]; 8M Urea fraction,0.73
same,fraction with the highest peak,"[5]; elution with 1, 2, 4, 8 M urea",2 M urea fraction
same,"binding ability of the proteins to the compound, ordered from highest to lowest",[6],"AHCY, PCMT1, OS9 and SPRY4"
